From US9029389B2 (Institut Pasteur Korea, priority 2011, dated 2015)

Key:
[1] = test system: M. tuberculosis H37Rv; assay: Acute TB mouse model of infection, bacterial load in lungs; assay type: in vivo, Mycobacterium tuberculosis; conditions: for Log10CFU: 4 weeks of treatment
[2] = target: T1, Human 5-lipoxygenase (Homo sapiens, UniProt P09917); assay: Activity of compounds against 5-LO enzyme (LTB4 measurement and/or fluorescence method); assay type: biochemical; conditions: for inhibition at 10 µM: 5-LO, single concentration of 10 uM in duplicate; for IC50: 6 or 11 point dose response in duplicate
T1 construct: purchased Cayman 60402; host or cells: insect cells
T1 sequence (P09917 1-674): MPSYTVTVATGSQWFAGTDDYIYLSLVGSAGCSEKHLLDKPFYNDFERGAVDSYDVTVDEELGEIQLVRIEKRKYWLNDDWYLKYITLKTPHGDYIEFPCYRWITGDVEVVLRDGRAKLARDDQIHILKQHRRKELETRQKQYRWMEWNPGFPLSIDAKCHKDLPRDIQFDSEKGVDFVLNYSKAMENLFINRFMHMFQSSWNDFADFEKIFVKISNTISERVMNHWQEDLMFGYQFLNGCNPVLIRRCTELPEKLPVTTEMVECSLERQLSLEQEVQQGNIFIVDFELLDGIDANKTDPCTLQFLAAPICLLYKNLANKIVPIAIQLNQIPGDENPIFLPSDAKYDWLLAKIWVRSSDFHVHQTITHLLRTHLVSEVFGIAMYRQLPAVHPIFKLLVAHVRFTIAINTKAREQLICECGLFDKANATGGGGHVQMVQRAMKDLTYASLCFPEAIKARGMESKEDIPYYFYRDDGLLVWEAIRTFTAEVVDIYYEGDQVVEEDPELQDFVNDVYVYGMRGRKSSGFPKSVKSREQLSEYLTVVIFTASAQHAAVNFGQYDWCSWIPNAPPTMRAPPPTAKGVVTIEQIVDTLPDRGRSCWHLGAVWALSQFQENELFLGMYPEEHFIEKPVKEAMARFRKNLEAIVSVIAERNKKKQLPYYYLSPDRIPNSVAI
Summary of the method: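 Two read-outs: LTB4 measured by EIA and/or LC/MS/MS with LTB4-d4 standard after 15 min RT compound preincubation with insect-cell 5-LO and a 5 min 37 °C reaction on 3 uM arachidonic acid (0.1 mM ATP, pH 7.4). The room-temperature fluorescence format used 20 uM H2DCFDA, 100 uM ATP, 3 uM arachidonic acid, 5 min; IC50 from 6/11-point curves.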

[3] = test system: production of LTB4 in human PBMC (peripheral blood mononuclear cells); assay: Production of LTB4 in PBMC (LTB4 secretion assay); assay type: cell-based; conditions: 12 point dose response in duplicate
Method: Frozen human PBMC (peripheral blood mononuclear cells, AllCells, Cat#[…]) was diluted 50 times with fresh culture media (RPMI 1640 supplemented with 10% FBS, 2 mM L-alanyl-L-glutamine). Cells were harvested by centrifugation and resuspended in fresh culture media to a concentration of 5×10^6 cells per milliliter. 140 ul of cell suspension was then liquated to each well (96-well plate). After incubation at 37° C. for 1 hr under 5% CO2, 10 ul of serially diluted compounds (in 100% DMSO) and 10 ul of arachidonic acid to a final concentration of 30 uM were added and further incubated for 1 hr at 37° C. for 1 hr under 5% CO2. Then, inducers, such as A23187 (Ionophor), sodium arsenite, sodium chloride and/or Anti-DNP IgE, were added in a volume of 40 ul and cells were incubated at 37° C. for […]. Culture supernatant was harvested by centrifugation and LTB4 levels were quantified using LTB4 EIA kit (Cayman, Cat#520111). Six of the 378 compounds tested against the 5-LO enzyme in vitro were also selected to be tested for their activity in a human cellular assay. Compounds were tested in a 12 point dose response in duplicate.

[4] = test system: inflammatory lesions in the lungs; assay: Acute TB mouse model of infection, histopathological analysis of lung tissue; assay type: in vivo, BalbC mice; conditions: TB-infected mice, Hematoxylin and Eosin staining, compared with even INH treatment (FIG. 1)
Method: The effect of compound 127 on TB-infected mice was compared to that of the reference compound Isoniazid (INH). 8-week old female BalbC mice were infected with 6×10^5 M. tuberculosis H37Rv via intranasal instillation. Mice were sacrificed at day 1 to control the number of CFU in the lungs. In the acute model of infection, mice were treated for 4 weeks, starting at day 1. Compounds were freshly dissolved in a 0.5% methylcellulose solution and administered by oral gavage 5 times/week. Bacterial load was assessed in lungs after homogenizing the organs in 1×PBS. Serial dilutions of organ homogenates were spread on Middlebrook 7H11 plates and CFU were determined after 3 weeks incubation at 37° C. under 5% CO2. Histopathological analysis of lung tissue was performed by Hematoxylin and Eosin staining.

NNC(=O)c1ccncc1 [INH, Isoniazid, reference compound]
Log10CFU ([1]; 25 mg/kg oral gavage 5 times/week): 5.0 Log10CFU

CCc1nc2cc(Cl)ccn2c1C(=O)NCc1ccc(N2CCN(c3ccc(F)cc3)CC2)cc1 [compound 127, 7-Chloro-2-ethyl-N-(4-(4-(4-fluorophenyl)piperazin-1-yl)benzyl)imidazo[1,2-a]pyridine-3-carboxamide]
inhibition at 10 µM [2]: > 69% | IC50 [2]: > 20000 nM | EC50 [3]: < 1000 nM | Log10CFU ([1]; 50 mg/kg oral gavage 5 times/week): 6.47 Log10CFU | reduction of CFU compared to untreated mice ([1]; 50 mg/kg, after 4 weeks of treatment): ~1 log CFU | number and size of inflammatory lesions in the lungs [4]: significant reduction in the number and size of inflammatory lesions in the lungs | melting point: 212 to 213 °C

CCc1nc2cc(Cl)ccn2c1C(=O)NCc1ccc2oc(-c3ccc(OC(F)(F)F)cc3)nc2c1 [compound 187, 7-Chloro-2-ethyl-N-((2-(4-(trifluoromethoxy)phenyl)benzo[d]oxazol-5-yl)methyl)imidazo[1,2-a]pyridine-3-carboxamide]
inhibition at 10 µM [2]: < 40% | EC50 [3]: 1000 to 20000 nM

CCc1nc2ccc(Cl)cn2c1CNc1ccc(N2CCN(c3ccc(F)cc3)CC2)cc1 [compound 311, N-((6-Chloro-2-ethylimidazo[1,2-a]pyridin-3-yl)methyl)-4-(4-(4-fluorophenyl)piperazin-1-yl)aniline]
inhibition at 10 µM [2]: > 69% | IC50 [2]: < 1000 nM | EC50 [3]: 1000 to 20000 nM | melting point: 191 to 192 °C

CCc1nc2cc([N+](=O)[O-])ccn2c1C(=O)NCc1ccc(N2CCC(Oc3ccc(OC(F)(F)F)cc3)CC2)cc1 [compound 312, 2-Ethyl-7-nitro-N-(4-(4-(4-(trifluoromethoxy)phenoxy)piperidin-1-yl)benzyl)imidazo[1,2-a]pyridine-3-carboxamide]
inhibition at 10 µM [2]: > 69% | IC50 [2]: < 1000 nM | EC50 [3]: < 1000 nM

CCc1nc2ccc(Cl)cn2c1C(=O)N1CCC(OCc2ccc(OC(F)(F)F)cc2)CC1 [compound 313, (6-Chloro-2-ethylimidazo[1,2-a]pyridin-3-yl)(4-(4-(trifluoromethoxy)benzyloxy)piperidin-1-yl)methanone]
inhibition at 10 µM [2]: > 69% | IC50 [2]: 1000 to 20000 nM | EC50 [3]: < 1000 nM

CCc1nc2ccc(Cl)cn2c1C(=O)N(C)Cc1ccc(N2CCN(c3ccc(F)cc3)CC2)cc1 [compound 314, 6-Chloro-2-ethyl-N-(4-(4-(4-fluorophenyl)piperazin-1-yl)benzyl)-N-methylimidazo[1,2-a]pyridine-3-carboxamide]
inhibition at 10 µM [2]: > 69% | IC50 [2]: 1000 to 20000 nM | EC50 [3]: < 1000 nM | melting point: 148 to 149 °C
